These results are taken from ChEMBL document CHEMBL4265880, “Discovery of 3-Cyano- N-(3-(1-isobutyrylpiperidin-4-yl)-1-methyl-4-(trifluoromethyl)-1 H-pyrrolo[2,3- b]pyridin-5-yl)benzamide: A Potent, Selective, and Orally Bioavailable Retinoic Acid Receptor-Related Orphan Receptor C2 Inverse Agonist” (J Med Chem, 2018).

≈ marks a conversion by molar mass, not a printed value.

The nature of data set [1]: Lipophilicity, log D of the compound at pH 7.4 by RP-HPLC analysis. In kind it is physicochemical. To be noted: buffer.
Data set [2] can be described thus: Volume of distribution at steady state in Beagle dog at 1 mg/kg, iv or 3 mg/kg, po via gavage by LC-MS/MS analysis. In kind it is ADME, organism-based, Canis lupus familiaris. To be noted: in vivo, read-out: Vdss.
Data set [3] can be described thus: Volume of distribution at steady state in Balb/c mouse at 1 mg/kg, iv or 30 mg/kg, po via gavage by LC-MS/MS analysis. In kind it is ADME, organism-based. To be noted: in vivo, read-out: Vdss.
Data set [4] is described as follows: Apparent permeability in RRCK cells. In kind it is ADME, cell-based, Canis lupus familiaris, MDCKII-LE. To be noted: dog, MDCK.
Data set [5] in a line: Oral bioavailability in Wistar Han rat at 3 mg/kg administered as crystalline solid by LC-MS/MS analysis. In kind it is ADME, organism-based. To be noted: in vivo.
A short description of data set [6]: Thermodynamic solubility of the compound at pH 6.5. In kind it is physicochemical. To be noted: buffer, read-out: Therm_solubility.
Data set [7] is described as follows: Oral bioavailability in Beagle dog at 3 mg/kg administered via spray-dried dispersion measured over 24 hrs by LC-MS/MS analysis. To be noted: in vivo. In kind it is ADME, organism-based, Canis lupus familiaris.
Data set [8] can be described thus: Volume of distribution at steady state in Wistar Han rat at 1 mg/kg, iv or 3 mg/kg, po via gavage by LC-MS/MS analysis. In kind it is ADME, organism-based. To be noted: in vivo, read-out: Vdss.
Data set [9] can be described thus: Oral bioavailability in Balb/c mouse at 30 mg/kg administered via spray-dried dispersion by LC-MS/MS analysis. To be noted: in vivo. In kind it is ADME, organism-based.
Data set [10] is described as follows: Oral bioavailability in Wistar Han rat at 3 mg/kg administered via spray-dried dispersion by LC-MS/MS analysis. To be noted: in vivo. In kind it is ADME, organism-based.

Broadly, the logD is the decadic logarithm of the distribution of all forms, ionised or not, between an organic phase and buffer at a given pH. A higher logD goes with a more lipophilic compound. Consider `CC(C)C(=O)N1CCC(c2cn(C)c3ncc(NC(=O)c4cccc(C#N)c4)c(C(C)C)c23)CC1`, for which the logD in data set [1] is 2.6.

Compound `CC(=O)N1CCC(c2cn(C)c3ncc(NC(=O)c4cccc(C#N)c4)c(C)c23)CC1` gave a logD in [1] of 1.6.

Broadly, the Papp is a coefficient for how fast a substance crosses the barrier. By bioavailability is commonly meant dose-corrected exposure relative to a reference, in per cent. Regarding `CC(C)C(=O)N1CCC(c2cn(C)c3ncc(NC(=O)c4cccc(C#N)c4)c(C(F)(F)F)c23)CC1`, the results for the Vd in data set [2], in data set [3] and in data set [8] were 1.5 L/kg, 0.8 L/kg and 1.4 L/kg, respectively. Further, in [4], the Papp came out at 13.2 ×10⁻⁶ cm/s. In addition, the bioavailability in [5] was 21%; in data set [7], 73%; in data set [9], 30%; in data set [10], 83%. In addition, the solubility thermodynamic in [6] stood at 1 µM (≈ 0.498 µg/mL). This compound displayed a logD in data set [1] of 3.7.

As for `Cc1c(NC(=O)c2cccc(C#N)c2)cnc2c1c(C1CCN(C(=O)C3CCOC3)CC1)cn2C` (centres undefined), the logD in [1] is 1.6.

As to `Cc1c(NC(=O)c2cccc(C#N)c2)cnc2c1c(C1CCN(C(=O)C3CCC3)CC1)cn2C`, the logD in data set [1] turned out to be 2.6.

Compound `Cn1cc(C2CCN(C(=O)C3CCCC3)CC2)c2cc(NC(=O)c3cccc(C#N)c3)cnc21` returned a logD in data set [1] of 3.8.

`Cn1cc(C2CCN(C(=O)C3CCCC3)CC2)c2cc(NC(=O)c3cc(C#N)ccn3)cnc21` had a logD in [1] of 3.7.

With `Cc1c(NC(=O)c2ccc(Cl)c(C#N)c2)cnc2c1c(C1CCN(C(=O)C(C)C)CC1)cn2C`, the logD in [1] was 3.6. This logD and that of the compound before are within 0.2 log units of each other.

With `Cc1c(NC(=O)c2cccc(C#N)c2)cnc2c1c(C1CCN(C(=O)C3CCCCC3)CC1)cn2C`, the pH-dependent lipophilicity (logD) in data set [1] worked out at 3.9.

`Cc1c(NC(=O)c2cccc(C#N)c2)cnc2c1c(C1CCN(C(=O)CC3CC3)CC1)cn2C`: in [1], the logD was determined as 2.4.

In turn, `CCC(=O)N1CCC(c2cn(C)c3ncc(NC(=O)c4cccc(C#N)c4)c(C)c23)CC1` yielded a log distribution coefficient (logD) in [1] of 2.

In the case of `Cc1c(NC(=O)c2ccc(F)c(C#N)c2)cnc2c1c(C1CCN(C(=O)C(C)C)CC1)cn2C`, the logD in data set [1] was found to be 2.3.

With `Cn1cc(C2CCN(C(=O)C3CCCC3)CC2)c2nc(NC(=O)c3cc(C#N)ccn3)ccc21`, the logD in data set [1] came to 4.2.

In the case of `Cc1noc(C)c1C(=O)N1CCC(c2cn(C)c3ncc(NC(=O)c4cccc(C#N)c4)c(C)c23)CC1`, in [1], the logD was determined as 2.

`Cn1cc(C2CCN(C(=O)C3CCCC3)CC2)c2cc(NC(=O)c3cc(C#N)ccn3)ccc21` gave a logD in data set [1] of 4.3.

For `Cc1c(NC(=O)c2cccc(C#N)c2)cnc2c1c(C1CCN(C(=O)C3CCCC3)CC1)cn2C`, in [1], the logD was 2.9.

On to `COc1ccc(C(=O)Nc2cnc3c(c(C4CCN(C(=O)C(C)C)CC4)cn3C)c2C)cc1C#N`, for which the logD in data set [1] was 2.4.

`COc1c(NC(=O)c2cccc(C#N)c2)cnc2c1c(C1CCN(C(=O)C(C)C)CC1)cn2C` gave a logD in data set [1] of 2.

For the compound `Cc1c(NC(=O)c2cccc(C#N)c2)ccc2c1c(C1CCN(C(=O)C3CCCC3)CC1)cn2C`, the logD in [1] came to 4.

`Cc1cccc(F)c1C(=O)N1CCC(c2cn(C)c3ncc(NC(=O)c4cccc(C#N)c4)c(C)c23)CC1` had a logD in [1] of 3.1.

On to `Cc1ccc(C(=O)Nc2cnc3c(c(C4CCN(C(=O)C(C)C)CC4)cn3C)c2C)cc1C#N`, for which the logD in [1] was 2.3.

With `Cn1cc(C2CCN(C(=O)C3CCCC3)CC2)c2cc(NC(=O)c3cccc(C#N)c3)ccc21`, the logD in data set [1] came to 4.4.

Compound `Cc1c(NC(=O)c2cccc(C#N)c2)cnc2c1c(C1CCN(C(=O)CC(C)C)CC1)cn2C` yielded a logD in data set [1] of 2.5.

As to `Cc1c(NC(=O)c2cccc(C#N)c2)cnc2c1c(C1CCN(C(=O)C3CC3)CC1)cn2C`, the logD in data set [1] was 2.3.

In data set [1], `Cc1c(NC(=O)c2cccc(C#N)c2)cnc2c1c(C1CCN(C(=O)C(C)C)CC1)cn2C` registered a logD of 2.
